# What was measured:
# [1] = system: Rattus norvegicus; experiment: Antiobesity activity in diet-induced obese rat assessed as energy balance at 3 mg/kg, po measured up to 24 hrs by indirect calorimetry assay; format: functional
# [2] = system: Rattus norvegicus; experiment: Ex vivo inhibition of [3H]-Diprenophine binding to kappa opioid receptor in striatum/nucleus accumbens isolated from rat treated with compound at 7 mg/kg, po for 6 hrs measured after 30 mins post [3H]-Diprenophine addition to tissue relative to control; format: functional
# [3] = system: Rattus norvegicus; experiment: Ex vivo inhibition of [3H]-Diprenophine binding to delta opioid receptor in striatum/nucleus accumbens isolated from rat treated with compound at 7 mg/kg, po for 6 hrs measured after 30 mins post [3H]-Diprenophine addition to tissue relative to control; format: functional
# [4] = system: Rattus norvegicus; experiment: Antiobesity activity in po dosed diet-induced obese rat assessed as inhibition of food consumption measured up to 24 hrs by indirect calorimetry assay; format: functional; conditions: read-out: MED
# [5] = system: Rattus norvegicus; experiment: Ex vivo inhibition of [3H]-Diprenophine binding to mu opioid receptor in striatum/nucleus accumbens isolated from rat treated with compound at 7 mg/kg, po for 6 hrs measured after 30 mins post [3H]-Diprenophine addition to tissue relative to control; format: functional
# [6] = system: Rattus norvegicus; experiment: In vivo inhibition of opioid receptor in obese rat assessed as compound dose causing effective decrease in feeding behavior; format: functional
# [7] = molecular target: Mu-type opioid receptor (Homo sapiens) (UniProt P35372); experiment: Antagonist activity at mu opioid receptor (unknown origin) expressed in membranes assessed as inhibition of DAMGO1-induced GTP-gamma-[35S] binding after 4 hrs by micro beta scintillation counting analysis
# [8] = molecular target: Delta-type opioid receptor (Homo sapiens) (UniProt P41143); experiment: Antagonist activity at delta opioid receptor (unknown origin) expressed in membranes assessed as inhibition of DPDPE-induced GTP-gamma-[35S] binding after 4 hrs by micro beta scintillation counting analysis
# [9] = molecular target: Kappa-type opioid receptor (Homo sapiens) (UniProt P41145); experiment: Antagonist activity at kappa opioid receptor (unknown origin) expressed in membranes assessed as inhibition of U69593-induced GTP-gamma-[35S] binding after 4 hrs by micro beta scintillation counting analysis
# Sequence of Kappa-type opioid receptor (Homo sapiens) (P41145 whole entry): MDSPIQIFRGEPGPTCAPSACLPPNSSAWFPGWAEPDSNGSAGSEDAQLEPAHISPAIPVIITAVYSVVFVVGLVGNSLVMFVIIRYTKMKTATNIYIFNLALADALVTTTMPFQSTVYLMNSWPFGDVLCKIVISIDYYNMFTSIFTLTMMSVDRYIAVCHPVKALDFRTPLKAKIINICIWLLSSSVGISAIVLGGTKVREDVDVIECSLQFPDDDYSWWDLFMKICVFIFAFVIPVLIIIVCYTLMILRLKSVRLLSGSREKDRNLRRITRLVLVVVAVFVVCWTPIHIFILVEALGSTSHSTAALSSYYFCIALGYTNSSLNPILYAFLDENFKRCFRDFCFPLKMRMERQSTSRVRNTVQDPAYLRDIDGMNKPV
# Sequence of Mu-type opioid receptor (Homo sapiens) (P35372 whole entry): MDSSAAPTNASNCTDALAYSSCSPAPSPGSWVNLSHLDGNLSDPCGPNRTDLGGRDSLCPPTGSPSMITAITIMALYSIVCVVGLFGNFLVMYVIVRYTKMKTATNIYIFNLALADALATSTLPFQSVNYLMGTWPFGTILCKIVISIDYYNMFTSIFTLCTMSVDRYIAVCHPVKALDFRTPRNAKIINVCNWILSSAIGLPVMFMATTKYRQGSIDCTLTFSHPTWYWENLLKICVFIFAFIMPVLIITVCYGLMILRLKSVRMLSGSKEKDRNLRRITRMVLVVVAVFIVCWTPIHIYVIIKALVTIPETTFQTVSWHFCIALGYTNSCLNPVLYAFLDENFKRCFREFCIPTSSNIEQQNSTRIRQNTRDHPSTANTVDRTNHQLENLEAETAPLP
# Sequence of Delta-type opioid receptor (Homo sapiens) (P41143 whole entry): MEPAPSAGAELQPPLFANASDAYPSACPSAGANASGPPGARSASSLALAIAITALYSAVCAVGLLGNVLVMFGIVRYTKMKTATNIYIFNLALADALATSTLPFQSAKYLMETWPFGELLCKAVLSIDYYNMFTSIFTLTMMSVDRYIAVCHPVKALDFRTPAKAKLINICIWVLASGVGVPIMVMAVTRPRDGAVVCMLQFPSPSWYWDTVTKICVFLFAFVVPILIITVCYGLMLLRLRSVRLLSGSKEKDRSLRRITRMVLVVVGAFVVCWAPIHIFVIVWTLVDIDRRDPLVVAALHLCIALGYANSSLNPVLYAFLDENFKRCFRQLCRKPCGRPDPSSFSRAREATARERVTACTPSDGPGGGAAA
Compound,Activity [1] [kcal/kg/day],inhibition in vivo at 7 mg/kg [2] [%],inhibition in vivo at 7 mg/kg [3] [%],minimal effective dose [4] [mg/kg],inhibition in vivo at 7 mg/kg [5] [%],ED [6],Kb [7] [nM],Kb [8] [nM],Kb [9] [nM]
C[C@H]1CN(CC[C@H](O)C2CCCCC2)CC[C@@]1(C)c1cccc(O)c1,-36,> 40,> 40,1,> 40,,,,
CCCCCNCc1ccc(Oc2ccc(C(N)=O)cn2)c(OC)c1,,75,75,,75,,,,
NC(=O)c1ccc(Oc2ccc(CNCCC3CCCC3)cc2)nc1,-39,> 60,> 60,≤ 3,> 60,<=3 ug/kg,,,
NC(=O)c1ccc(Oc2ccc(CNCCC3CCCCC3)cc2)nc1,,79,79,,79,,,,
NC(=O)c1ccc(Oc2ccc(CNCCc3cccc(F)c3)cc2)nc1,,40,40,,40,,0.072,0.677,0.894
CC(C)CCNCc1ccc(Oc2ccc(C(N)=O)cn2)cc1,-35,> 40,> 40,0.3,> 40,0.3 mg/kg,0.2,4.4,0.4
NC(=O)c1ccc(Oc2ccc(CCNCc3cccc(F)c3)cc2Cl)nc1,,,,,,,0.41,5.78,4.5
COc1cc(CNCCc2ccccc2F)ccc1Oc1ccc(C(N)=O)cn1,,54,54,,54,,,,
Cc1cc(CNCCC(C)C)ccc1Oc1ccc(C(N)=O)cc1F,,58,58,,58,,,,
CCCCCNCc1ccc(Oc2ccc(C(N)=O)nc2)c(F)c1,,55,55,,55,,,,
CCCCNCc1ccc(Oc2ccc(C(N)=O)cn2)c(C)c1,,38,38,,38,,,,
O=C1CC[C@@]2(O)[C@H]3Cc4ccc(O)c5c4[C@@]2(CCN3CC2CC2)[C@H]1O5 [NALTREXONE],,< 40,< 40,> 10,< 40,,,,
CC(C)(C)CCNCc1ccc(Oc2ccc(C(N)=O)cn2)c(Cl)c1,,83,83,,83,,,,
NC(=O)c1ccc(Oc2ccc(CNCCc3cccs3)cc2)nc1,-19,> 40,> 40,≤ 3,> 40,<=3 ug/kg,0.068,0.708,0.355
NC(=O)c1ccc(Oc2ccc3c(c2)CCCN(CCc2ccccc2)C3)nc1,,62,62,,62,,,,
Cc1ccccc1CNCCc1ccc(Oc2ccc(C(N)=O)cn2)c(Cl)c1,,,,,,,0.281,8.9,3.38
COc1cc(CNCCC(C)(C)C)ccc1Oc1ccc(C(N)=O)cn1,,55,55,,55,,,,
CC(C)CCNCc1ccc(Oc2ccc(C(N)=O)cn2)c(F)c1,-81,> 65,> 65,0.3,> 65,0.3 mg/kg,,,
Cc1cc(CNCCC(C)C)ccc1Oc1ccc(C(N)=O)cn1,-68,55,55,0.3,55,0.3 mg/kg,,,
NC(=O)c1ccc(Oc2ccc(CCNCc3ccccc3)cc2Cl)nc1,,,,,,,0.843,17.5,7.86
NC(=O)c1ccc(Oc2ccc(CCNCc3cccc(Cl)c3)cc2Cl)nc1,,,,,,,0.503,30.1,6.86
CC(C)CCNCc1ccc(Oc2ccc(C(N)=O)cn2)c(Cl)c1,,77,77,,77,,,,
Cc1cc(CNCCC(C)(C)C)ccc1Oc1ccc(C(N)=O)cn1,,59,59,,59,,,,
CCCCCNCc1ccc(Oc2ccc(C(N)=O)cc2)cc1,-65,,,3,,3 mg/kg,,,
CC(C)(C)CCNCc1ccc(Oc2ccc(C(N)=O)cn2)cc1,-56,62,62,≤ 3,62,<=3 ug/kg,,,
NC(=O)c1ccc(Oc2ccc(CNCCc3ccc(F)cc3)cc2)cc1,,50,50,,50,,,,
